Experimental data published in the supplement of paper PMC10307832.

Tests used:
Assay in all cases: relative viability (nuclei count vs DMSO), 5 days (fraction); higher = more cells survive
[1] = system: NCI-H1623
Summary of the method: (§1)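 A single step with final 0.05% Triton X-100, 1% formaldehyde and 1 ug/ml Hoechst fixed the cells and stained nuclei 5 days after treatment. Lung cancer cell lines in 1536-well plates had been treated by pin tool the day after seeding with one drug alone or a fixed anchor-drug dose plus five library-drug doses (not always all listed) in √10 steps, and nuclei were counted on 4× images. Relative viability is the ratio of nuclei in treated wells to nuclei in vehicle wells, taken as the median of duplicate plates.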

[2] = system: NCI-H2009
Summary of the method: as §1

[3] = system: A549
Summary of the method: as §1

[4] = system: NCI-H460
Summary of the method: as §1

[5] = system: NCI-H522
Summary of the method: as §1

[6] = system: NCI-H661
Summary of the method: as §1

[7] = system: NCI-H1648
Summary of the method: as §1

Structure (SMILES): Oc1nc(-c2ccc(C(F)(F)F)cc2)nc2c1CSCC2 [XAV939] + N=C(N)NC(=N)NCCc1ccccc1 [Phenformin] (partner 250 µM)
- relative viability ([1]; first compound 0.08 µM): 0.578
- relative viability ([1]; first compound 0.253 µM): 0.555
- relative viability ([1]; first compound 0.8 µM): 0.59
- relative viability ([1]; first compound 2.53 µM): 0.591
- relative viability ([2]; first compound 0.08 µM): 0.524
- relative viability ([2]; first compound 0.253 µM): 0.484
- relative viability ([2]; first compound 0.8 µM): 0.421
- relative viability ([2]; first compound 2.53 µM): 0.441
- relative viability ([3]; first compound 0.08 µM): 0.136
- relative viability ([3]; first compound 0.253 µM): 0.218
- relative viability ([3]; first compound 0.8 µM): 0.129
- relative viability ([3]; first compound 2.53 µM): 0.175
- relative viability ([4]; first compound 0.08 µM): 0.526
- relative viability ([4]; first compound 0.253 µM): 0.408
- relative viability ([4]; first compound 0.8 µM): 0.53
- relative viability ([4]; first compound 2.53 µM): 0.502
- relative viability ([5]; first compound 0.08 µM): 0.599
- relative viability ([5]; first compound 0.253 µM): 0.707
- relative viability ([5]; first compound 0.8 µM): 0.594
- relative viability ([5]; first compound 2.53 µM): 0.599
- relative viability ([6]; first compound 0.08 µM): 0.277
- relative viability ([6]; first compound 0.253 µM): 0.272
- relative viability ([6]; first compound 0.8 µM): 0.281
- relative viability ([6]; first compound 2.53 µM): 0.267

Structure (SMILES): Oc1nc(-c2ccc(C(F)(F)F)cc2)nc2c1CSCC2 [XAV939] + Cc1cc(Nc2cc(N3CCN(C)CC3)nc(Sc3ccc(NC(=O)C4CC4)cc3)n2)n[nH]1 [Tozasertib] (partner 0.1 µM)
- relative viability ([1]; first compound 0.08 µM): 0.403
- relative viability ([1]; first compound 0.253 µM): 0.414
- relative viability ([1]; first compound 0.8 µM): 0.386
- relative viability ([1]; first compound 2.53 µM): 0.373
- relative viability ([2]; first compound 0.08 µM): 0.84
- relative viability ([2]; first compound 0.253 µM): 0.66
- relative viability ([2]; first compound 0.8 µM): 0.713
- relative viability ([2]; first compound 2.53 µM): 0.647
- relative viability ([7]; first compound 0.08 µM): 0.664
- relative viability ([7]; first compound 0.8 µM): 0.453
- relative viability ([7]; first compound 2.53 µM): 0.275
- relative viability ([4]; first compound 0.08 µM): 0.587
- relative viability ([4]; first compound 0.253 µM): 0.392
- relative viability ([4]; first compound 0.8 µM): 0.45
- relative viability ([4]; first compound 2.53 µM): 0.289
- relative viability ([5]; first compound 0.08 µM): 0.6
- relative viability ([5]; first compound 0.253 µM): 0.529
- relative viability ([5]; first compound 0.8 µM): 0.568
- relative viability ([5]; first compound 2.53 µM): 0.638
- relative viability ([6]; first compound 0.08 µM): 0.364
- relative viability ([6]; first compound 0.253 µM): 0.346
- relative viability ([6]; first compound 0.8 µM): 0.365
- relative viability ([6]; first compound 2.53 µM): 0.339

Structure (SMILES): CC1(C)CCC(c2ccc(Cl)cc2)=C(CN2CCN(c3ccc(C(=O)NS(=O)(=O)c4ccc(N[C@H](CCN5CCOCC5)CSc5ccccc5)c(S(=O)(=O)C(F)(F)F)c4)cc3)CC2)C1 [Navitoclax] + Cc1cc(Nc2cc(N3CCN(C)CC3)nc(Sc3ccc(NC(=O)C4CC4)cc3)n2)n[nH]1 [Tozasertib] (partner 0.1 µM)
- relative viability ([1]; first compound 0.005 µM): 0.406
- relative viability ([1]; first compound 0.01581 µM): 0.405
- relative viability ([1]; first compound 0.05 µM): 0.415
- relative viability ([1]; first compound 0.1581 µM): 0.464
- relative viability ([1]; first compound 0.5 µM): 0.4
- relative viability ([2]; first compound 0.005 µM): 0.692
- relative viability ([2]; first compound 0.01581 µM): 0.79
- relative viability ([2]; first compound 0.05 µM): 0.713
- relative viability ([2]; first compound 0.1581 µM): 0.769
- relative viability ([2]; first compound 0.5 µM): 0.711
- relative viability ([7]; first compound 0.005 µM): 0.609
- relative viability ([7]; first compound 0.01581 µM): 0.506
- relative viability ([7]; first compound 0.1581 µM): 0.459
- relative viability ([7]; first compound 0.5 µM): 0.575
- relative viability ([4]; first compound 0.005 µM): 0.392
- relative viability ([4]; first compound 0.01581 µM): 0.327
- relative viability ([4]; first compound 0.05 µM): 0.37
- relative viability ([4]; first compound 0.1581 µM): 0.382
- relative viability ([4]; first compound 0.5 µM): 0.397
- relative viability ([5]; first compound 0.005 µM): 0.574
- relative viability ([5]; first compound 0.01581 µM): 0.535
- relative viability ([5]; first compound 0.05 µM): 0.607
- relative viability ([5]; first compound 0.1581 µM): 0.631
- relative viability ([5]; first compound 0.5 µM): 0.669
- relative viability ([6]; first compound 0.005 µM): 0.355
- relative viability ([6]; first compound 0.01581 µM): 0.344
- relative viability ([6]; first compound 0.05 µM): 0.341
- relative viability ([6]; first compound 0.1581 µM): 0.363
- relative viability ([6]; first compound 0.5 µM): 0.358

Structure (SMILES): NC(=O)Nc1cc(-c2cccc(F)c2)sc1C(=O)N[C@H]1CCCNC1 [AZD7762] + Cc1cc(Nc2cc(N3CCN(C)CC3)nc(Sc3ccc(NC(=O)C4CC4)cc3)n2)n[nH]1 [Tozasertib] (partner 0.1 µM)
- relative viability ([1]; first compound 0.01 µM): 0.4
- relative viability ([1]; first compound 0.03162 µM): 0.43
- relative viability ([1]; first compound 0.1 µM): 0.44
- relative viability ([1]; first compound 0.3162 µM): 0.441
- relative viability ([1]; first compound 1 µM): 0.39
- relative viability ([2]; first compound 0.01 µM): 0.857
- relative viability ([2]; first compound 0.03162 µM): 0.703
- relative viability ([2]; first compound 0.1 µM): 0.688
- relative viability ([2]; first compound 0.3162 µM): 0.543
- relative viability ([2]; first compound 1 µM): 0.384
- relative viability ([7]; first compound 0.01 µM): 0.527
- relative viability ([7]; first compound 0.03162 µM): 0.552
- relative viability ([7]; first compound 0.1 µM): 0.36
- relative viability ([7]; first compound 0.3162 µM): 0.451
- relative viability ([7]; first compound 1 µM): 0.425
- relative viability ([4]; first compound 0.01 µM): 0.506
- relative viability ([4]; first compound 0.03162 µM): 0.394
- relative viability ([4]; first compound 0.1 µM): 0.444
- relative viability ([4]; first compound 0.3162 µM): 0.357
- relative viability ([4]; first compound 1 µM): 0.031
- relative viability ([5]; first compound 0.01 µM): 0.536
- relative viability ([5]; first compound 0.03162 µM): 0.657
- relative viability ([5]; first compound 0.1 µM): 0.621
- relative viability ([5]; first compound 0.3162 µM): 0.566
- relative viability ([5]; first compound 1 µM): 0.535
- relative viability ([6]; first compound 0.01 µM): 0.357
- relative viability ([6]; first compound 0.03162 µM): 0.368
- relative viability ([6]; first compound 0.1 µM): 0.372
- relative viability ([6]; first compound 0.3162 µM): 0.432
- relative viability ([6]; first compound 1 µM): 0.396
